Assay results as given in patent publication US5821046A, “RNA oligonucleotides that bind HIV tat protein” (RiboTargets Holdings PLC, priority 1990, dated 1998).
Positions count from the first letter of the chain named. Entries after “also recorded” stand apart in the source; their conditions may differ. Where two headings read alike, the source gives them in different places. [4sT] = 4-thio-2'-deoxythymidine; [5BrU] = 5-bromo-2'-deoxyuridine; d = 2'-deoxy (DNA); r = 2'-OH (RNA)

Experiments:
tat protein = assay: competition filter binding assay with chemically synthesized RNA (Table 4); design: species or system HIV-1; details: for IC50: 40 nM tat, read-out: D1/2; for competition for tat binding compared with unmodified RNA: competition filter binding, FIGS. 19, 21-24, 26; for drop in D1/2 compared with unmodified duplex: modified 17-mer + 14-mer duplex
Method: Competition binding reactions (0.5ml) in TK buffer (50 mM Tris.HCl(pH7.9 at 0.5M and 22° G), 20 mM KCl ) included 10nM ^32 p labeled 59-mer (ca. 20,000 cpm) , 40nM tat protein, 5 ug/ml calf thymus DNA, 2 ug/ml yeast tRNA, 40 units of RNAsin (Promega) and varying concentrations (0-300 nM) of unlabeled competitor RNA (59-mer [SEQ ID NO: 1; ], 29-mer [SEQ ID NO: 12] or preannealed (slow cooled from 90° C.) 14-mer [SEQ ID NO: 14; nucleotides 2-15] and 17-mer [SEQ ID NO: 13; nucleotides 1- 17]). Binding was allowed to take place for 2-15 minutes on ice and each reaction was filtered through a twice prewashed (0.6 ml of ice-cold TK buffer) Millipore GS filter (2.5 cm disks, 0.22 um pore) and the filter washed with TK buffer (0.6 ml). Dried filters were counted by liquid scintillation. Results were plotted on a graph (FIG. 19) showing counts retained on the filter versus the concentration of competitor RNA added.
Competition binding reactions (0.5 ml) in TK buffer included 10 nM duplex formed from ^32 P-labeled and unlabeled 29-mer (ca. 20,000 cpm) or 10 nM duplex formed from ^32 P-labeled and unlabeled 17-mer annealed to unlabeled 14-mer, 40 nM tat protein, 5 ug/ml calf thymus DNA, 2 ug/ml yeast tRNA and varying concentrations (0-120 nM) of unlabeled competitor RNA (29-mer or modified 29-mer (FIG. 21), or 17-mer +14-mer duplex or modified 7-mer +14-mer duplex (22, 23 and 24) and were carried out as described above.
Competition binding reactions (0-5 ml) in TK buffer included 10 nM duplex formed from ^32 P-labelled (ca. 20,000 cpm) and unlabelled 18-mer [SEQ ID NO: 13] annealed to unlabelled 15-mer [SEQ ID NO: 14], 40 nM tat protein, 5 ug/ml calf thymus DNA, 2 ug/ml yeast TRNA and varying concentrations (0-120 nM) of unlabelled competitor RNA (59-mer [SEQ ID NO: 1] or 18-mer [SEQ ID NO: 13]+15-mer [SEQ ID NO: 14] duplex, or modified 18-mer [SEQ ID NO: […]

HIV-1 Tat = HIV-1 Tat (Human immunodeficiency virus 1, UniProt P04608 P04608:1-86); assay: competition; D1/2; wild type 90 nM
[1] = 32P-end labelled 18-mer annealed to 15-mer
[2] = 32P-end labelled 18-mer annealed to 15-mer 10 nM, competitor 0-120 nM
[3] = relative to 14 +17 duplex, 32P-end labelled 18-mer annealed to 15-mer
[4] = 32P-end-labelled 29-mer 10 nM, competitor 0-120 nM
[5] = relative to 29-mer, 32P-end-labelled 29-mer 10 nM
[6] = 32P-end-labeled 17-mer annealed to 14-mer 10 nM, competitor 0-120 nM (dT series)
[7] = relative to 14 +17 duplex, 32P-end-labeled 17-mer annealed to 14-mer
[8] = 32P-labeled 59-mer transcript 10 nM
[9] = BrdU series, relative to 14 +17 duplex
[10] = BrdU series, 32P-end-labelled 29-mer 10 nM, competitor 0-120 nM

## 4-thioT-24: 15-mer annealed to 18-mer where U24 is replaced by 4-thio-2'-deoxythymidine (AGCCAGAUTUGAGCAGCU; sugars from the 5' end r8 d1 r9, [4sT] at 9, backbone not given here; annealed to 15-mer strand)
Tat protein; [1]
  Krel (59-mer): 0.7
Tat protein; [2]
  IC50: 25 nM
Tat protein
  competition for tat binding compared with unmodified RNA: competes for binding better than unsubstituted duplex
Tat protein; [3]
  Krel (29 or 14 +17): 2.0

## 4-thioT-25: 15-mer annealed to 18-mer where U25 is replaced by 4-thio-2'-deoxythymidine (AGCCAGAUUTGAGCAGCU; DNA at 10, [4sT] at 10, other sugars and backbone not given here; annealed to a 15-mer strand, further chemistry not fully specified)
Tat protein; [1]
  Krel (59-mer): 1.5
Tat protein; [2]
  IC50: 12 nM
Tat protein; listed as SEQ ID NO: 25
  competition for tat binding compared with unmodified RNA: competes for binding better than unsubstituted duplex; also recorded: competes as well as unmodified 59-mer
Tat protein; [3]
  Krel (29 or 14 +17): 4.2

## 2'-OmeU-23: chemically synthesized 29-mer where U23 is replaced by 2'-O-methyluridine (GCCAGANUUGAGCCUGGGAGCUCUCUGGC; 2'-O-methyluridine at U23, chemistry not fully specified)
Tat protein; [4]
  IC50: 50 nM
Tat protein; listed as SEQ ID NO: 16
  competition for tat binding compared with unmodified RNA: competed as well as as unmodified 29-mer; also recorded: competes for tat binding as well as unmodified 29-mer
Tat protein; [5]
  Krel (29 or 14 +17): 1.2

## dT-25: 14-mer annealed to 17-mer where U25 is replaced by 2'-deoxythymidine (AGCCAGAUUNGAGCAGC; 2'-deoxythymidine at 25, annealed 14-mer without entry, chemistry not fully specified)
Tat protein; [6]
  IC50: 90 nM
Tat protein
  competition for tat binding compared with unmodified RNA: competes less well compared to unmodified duplex
  drop in D1/2 compared with unmodified duplex: 2-3 fold
Tat protein; [7]
  Krel (29 or 14 +17): 0.4

## dT-23: 14-mer annealed to 17-mer where U23 is replaced by 2'-deoxythymidine (AGCCAGANUUGAGCAGC; 2'-deoxythymidine at 23, annealed 14-mer without entry, chemistry not fully specified)
Tat protein; [6]
  IC50: 35 nM
Tat protein
  competition for tat binding compared with unmodified RNA: no effect on competition
Tat protein; listed as SEQ ID NO: 17
  competition for tat binding compared with unmodified RNA: competes for tat binding as well as unmodified duplex
Tat protein; [7]
  Krel (29 or 14 +17): 1.1

## r(GCCAGAUUUGAGCCUGGGAGCUCUCUGGC) (RNA, backbone not given here) [29-mer, chemically synthesized 29-mer, top part of TAR including loop and U-rich bulge]
Tat protein; [4]
  IC50: 60 nM
Tat protein; [8]
  Krel (59-mer): 0.4
  increase in D1/2 compared with 59-mer: 2-3 fold
Tat protein; 32P-labeled 59-mer transcript 10 nM, competitor 0-300 nM
  IC50: 100 nM
Tat protein
  competition for tat binding compared with unmodified RNA: competes for binding to tat almost as well as a 59-mer RNA transcript
Tat protein; [5]
  Krel (29 or 14 +17): 1.0

## dU-23: chemically synthesized 29-mer where U23 is replaced by 2'-deoxyuridine (GCCAGANUUGAGCCUGGGAGCUCUCUGGC; 2'-deoxyuridine at 23, chemistry not fully specified)
Tat protein; [4]
  IC50: 55 nM
Tat protein; listed as SEQ ID NO: 15
  competition for tat binding compared with unmodified RNA: competed as well as as unmodified 29-mer; also recorded: competes for tat binding as well as unmodified 29-mer
Tat protein; [5]
  Krel (29 or 14 +17): 1.1

## 15 +18: duplex of unmodified 18-mer [SEQ ID NO: 13] and 15-mer [SEQ ID NO: 14] containing a U-rich bulge (chain 1 AGCCAGAUUUGAGCAGCU; chain 2 AGCUGCUCUCUGGCU; RNA, phosphodiester; duplex with U-rich bulge)
Tat protein; [1]
  Krel (59-mer): 0.3
Tat protein; [2]
  IC50: 65 nM
Tat protein
  competition for tat binding compared with unmodified RNA: competed as well as 17-mer
Tat protein; [3]
  Krel (29 or 14 +17): 0.8

## BrdU-24: 14-mer annealed to 17-mer where U24 is replaced by 5-bromo-2'-deoxyuridine (AGCCAGAUUUGAGCAGC; DNA at 9, [5BrU] at 9, other sugars and backbone not given here; annealed to a 14-mer strand, further chemistry not fully specified)
Tat protein; [9]
  Krel (29 or 14 +17): 1.0
Tat protein; [10]
  IC50: 45 nM
Tat protein
  competition for tat binding compared with unmodified RNA: no effect on competition
Tat protein; listed as SEQ ID NO: 21
  competition for tat binding compared with unmodified RNA: competes as well compared to unsubstituted duplex

## dT-24: 14-mer annealed to 17-mer where U24 is replaced by 2'-deoxythymidine (AGCCAGAUNUGAGCAGC; 2'-deoxythymidine at 24, annealed 14-mer without entry, chemistry not fully specified)
Tat protein; [6]
  IC50: 30 nM
Tat protein
  competition for tat binding compared with unmodified RNA: no effect on competition
Tat protein; listed as SEQ ID NO: 18
  competition for tat binding compared with unmodified RNA: competes for tat binding as well as unmodified duplex
Tat protein; [7]
  Krel (29 or 14 +17): 1.2

## BrdU-25: 14-mer annealed to 17-mer where U25 is replaced by 5-bromo-2'-deoxyuridine (AGCCAGAUUUGAGCAGC; sugars from the 5' end r9 d1 r7, [5BrU] at 10, backbone not given here; annealed to 14-mer strand)
Tat protein; [9]
  Krel (29 or 14 +17): 1.1
Tat protein; [10]
  IC50: 35 nM
Tat protein
  competition for tat binding compared with unmodified RNA: no effect on competition
Tat protein; listed as SEQ ID NO: 22
  competition for tat binding compared with unmodified RNA: competes for tat binding as well compared to unsubstituted duplex

## BrdU-23: 14-mer annealed to 17-mer where U23 is replaced by 5-bromo-2'-deoxyuridine (AGCCAGAUUUGAGCAGC; DNA at 8, [5BrU] at 8, other sugars and backbone not given here; annealed to a 14-mer strand, further chemistry not fully specified)
Tat protein; [9]
  Krel (29 or 14 +17): 0.6
Tat protein; [10]
  IC50: 70 nM
Tat protein
  competition for tat binding compared with unmodified RNA: competes for tat binding less well
  drop in D1/2 compared with unmodified duplex: 2 fold

B1: TAR bulge U (ssRNA)
RNA: GGGUCUCUCUGGUUAGACCAGAUGAGCCUGGGAGCUCUCUGGCUAACUAGGGAACCC
modifications: [23-25]
HIV-1 Tat
  IC50: 673 nM

B2: TAR bulge CUU (ssRNA)
RNA: GGGUCUCUCUGGUUAGACCAGACUUGAGCCUGGGAGCUCUCUGGCUAACUAGGGAACCC
modifications: [23]
HIV-1 Tat
  IC50: 630 nM

B3: TAR bulge CCU (ssRNA)
RNA: B2 RNA with U24C
modifications: [23,24]
HIV-1 Tat
  IC50: 1330 nM

B4: TAR bulge CCC (ssRNA)
RNA: B2 RNA with U24C, U25C
modifications: [23,24,25]
HIV-1 Tat
  IC50: 1780 nM

B5: TAR bulge CUC (ssRNA)
RNA: B2 RNA with U25C
modifications: [23,25]
HIV-1 Tat
  IC50: 2140 nM

B6: TAR bulge CC (ssRNA)
RNA: GGGUCUCUCUGGUUAGACCAGACCGAGCCUGGGAGCUCUCUGGCUAACUAGGGAACCC
HIV-1 Tat
  IC50: 2370 nM

B7: TAR U40 to A40 (ssRNA)
RNA: B2 RNA with C23U, U40A
HIV-1 Tat
  IC50: 5620 nM

B8: TAR A22 to U22; U40 to A40 (ssRNA)
RNA: B2 RNA with A22U, C23U, U40A
HIV-1 Tat
  IC50: 220 nM
